Measured values as given in publication PMC8875489, “Pharmaceutical and Safety Profile Evaluation of Novel Selenocompounds with Noteworthy Anticancer Activity” (Pharmaceutics, 2022).

Tested on: not listed separately
Test: PAMPA membrane permeability test (capillary electrophoresis)
Type: in vitro ADME
Conditions: not given
Description: The passive transport and membrane absorption of 5 selected selenocompounds (EDA-58, EDA-71, EDA-119, EDA-122, and EDA-A6) were evaluated with the in vitro parallel artificial membrane permeability assay (PAMPA). This PAMPA assay could provide better predictability and membrane permeability correlations compared to the data obtained for human absorption in the Caco-2 cell line. The Precoated PAMPA Plate System Gentest™ (Corning, Bradford, MA, USA) was used to perform the permeability assay for the 5 selected Se compounds. The protocol of the permeability assay was similar to the previously described ones and is detailed in the Supplementary Materials.
Five selenocompounds (EDA-58, EDA-71, EDA-119, EDA-122, and EDA-A6) were evaluated with the PAMPA in vitro assay using the CE technique.
[formula] Scheme 1 Calculation of the in vitro permeability (cm/s). A (filter area) cm^2 = 0.3; VD (donor well volume) mL = 0.3; VA (acceptor well volume) mL = 0.2; t (incubation time) seconds = 18,000; CA(t) (compound concentration in acceptor well at time t); CD(t) (compound concentration in donor well at time t). […]
1.3. PAMPA test: membrane permeability evaluation.
The passive transport and the membrane absorption of 5 selected selenocompounds (EDA-58, EDA-71, EDA-119, EDA-122, EDA-A6) were evaluated in the in vitro Parallel Artificial Membrane Permeability Assay (PAMPA). The protocol of the permeability assay was similar to the ones previously described.
1.3.1. Stock solutions and sample preparation for PAMPA test
Working solutions of the tested compounds at the concentration of the 50 μM in the phosphate saline buffer (PBS, pH 7.4) were prepared from the stocks in the pure dimethyl sulfoxide (DMSO) and stored at -20° C. Moreover, to draw the precise calibration curves for each tested (EDA-58, EDA-71, EDA-119, EDA-122, EDA-A6) and reference com- […]
The Precoated PAMPA Plate System Gentest™ (Corning, Bradford, MA, USA) was used to perform permeability assay for the 5 selected Se-compounds. The essential part of […]
solvents. PAMPA Plate System was brought to room temperature 30 min before use.
The 96-well filter plate precoated with lipids was used as a permeation acceptor, whereas the 96-well receiver plate acted as the permeation donor plate. Therefore, the compound solutions were added to the wells (300 μL/well) of the receiver plate and PBS was added to wells (200 μL/well) of the precoated filter plate.
Then, the filter plate was coupled with the receiver plate and both were incubated at room temperature for five hours without agitation. […] Fi-nally, the permeability coefficients (Pe, [cm/s]) of the tested compounds were estimated using the formula provided by the PAMPA Plate System manufacturer.
1.3.3. Capillary electrophoresis (CE) analytical method […]
were calculated in both the donor and acceptor compartments using the capillary electro-

Row | Compound | permeability compared with caffeine
1 | O=C1[Se]C(=O)c2ccccc21 [EDA-A6, benzo[c]selenophene-1,3-dione] | higher permeability values than caffeine
2 | C[Se]C(=O)c1ccc(C(=O)[Se]C)s1 [EDA-122, Se,Se-dimethyl thiophene-2,5-bis(carboselenoate)] | higher permeability values than caffeine
3 | CC(=O)C[Se]C(=O)c1ccc(Cl)cc1 [EDA-71, Se-(2-oxopropyl) 4-chlorobenzoselenoate] | higher permeability values than caffeine
4 | C[Se]C(=O)c1cccc(C(=O)[Se]C)n1 [EDA-119, Se,Se-dimethyl pyridine-2,6-bis(carboselenoate)] | lower permeability values than caffeine
5 | COC(=O)C[Se]C(=O)c1cc(OC)cc(OC)c1 [EDA-58, methyl 2-((3,5-dimethoxybenzoyl)selanyl)acetate] | lower permeability values than caffeine

Same assay, conditions: 50 μM in PBS pH 7.4, 5 h, room temperature, read-out: In Vitro Permeability

Row | Compound | Papp at 5 h, 50 µM [×10⁻⁶ cm/s]
6 | O=C1[Se]C(=O)c2ccccc21 [EDA-A6, benzo[c]selenophene-1,3-dione] | 3.44
7 | C[Se]C(=O)c1ccc(C(=O)[Se]C)s1 [EDA-122, Se,Se-dimethyl thiophene-2,5-bis(carboselenoate)] | 4.67
8 | CC(=O)C[Se]C(=O)c1ccc(Cl)cc1 [EDA-71, Se-(2-oxopropyl) 4-chlorobenzoselenoate] | 3.86
9 | C[Se]C(=O)c1cccc(C(=O)[Se]C)n1 [EDA-119, Se,Se-dimethyl pyridine-2,6-bis(carboselenoate)] | 3.27
10 | COC(=O)C[Se]C(=O)c1cc(OC)cc(OC)c1 [EDA-58, methyl 2-((3,5-dimethoxybenzoyl)selanyl)acetate] | 2.22

Same assay, conditions: 5 h

Row | Compound | % Perm. (percentage that crossed from the donor well to the acceptor well) [%]
11 | O=C1[Se]C(=O)c2ccccc21 [EDA-A6, benzo[c]selenophene-1,3-dione] | 6.08
12 | C[Se]C(=O)c1ccc(C(=O)[Se]C)s1 [EDA-122, Se,Se-dimethyl thiophene-2,5-bis(carboselenoate)] | 8.20
13 | CC(=O)C[Se]C(=O)c1ccc(Cl)cc1 [EDA-71, Se-(2-oxopropyl) 4-chlorobenzoselenoate] | 6.81
14 | C[Se]C(=O)c1cccc(C(=O)[Se]C)n1 [EDA-119, Se,Se-dimethyl pyridine-2,6-bis(carboselenoate)] | 5.79
15 | COC(=O)C[Se]C(=O)c1cc(OC)cc(OC)c1 [EDA-58, methyl 2-((3,5-dimethoxybenzoyl)selanyl)acetate] | 3.95

Tested on: Salmonella Typhimurium TA100 strain
Test: Reference experiment: impact on Salmonella Typhimurium growth (OD600)
Type: cell-based, Salmonella enterica serovar Typhimurium
Conditions: 1 and 10 µM, 20 h, 37 °C
Description: Therefore, a reference experiment with 20 h of incubation at constant temperature conditions (37 °C) was performed in order to determine the effect of the tested compounds on the growth of the Salmonella Typhimurium used in the Ames test. […] Therefore, this method could be successfully applied to determine the safety profile of the tested derivatives.
it indicated the occurrence of cytotoxic events.
Salmonella Typhimurium growth
microplate assay. During the experiment, Salmonella Typhimurium TA100 strain was cul-
At the day of the experiment,
tions of 25 μM and 250 μM) respectively. The final compound and mutagenic agent con-
References in Supplementary (same numeration than in manuscript)
Appl Biochem Biotechnol, 2018, 184(1), 124-139.
Karczewska, E.; Kieć-Kononowicz, K.; Handzlik, J.; Jacob, C. Pronounced activity of aromatic selenocyanates against multidrug
Chem Biol Drug Res, 2017, 90(6), 1295-1306.
Drug Des Devel Ther, 2016,
icity of Environmental Samples. Environ Mol Mutagen, 2010, 51(1), 31-38.
stranded DNA is characterized by guanine to pyrimidine transversions. Nucleic Acids Res, 1992, 20(6), 1283-1287.

Row | Compound | effect on the growth of Salmonella Typhimurium
16 | C[Se]C(=O)c1ccc(C(=O)[Se]C)cc1 [EDA-109, Se,Se-dimethyl benzene-1,4-bis(carboselenoate)] | stimulating effect on the growth
